Consider three compounds from patent publication US7393856B2, “Anti-viral uses of borinic acid complexes” (Anacor Pharmaceuticals, Inc., priority 2004, dated 2008).

Structures are written as SMILES.

Data set [1] in a line: In vitro anti-viral activity for HSV-1. It is filed as cell-based. To be noted: HSV-1 assay; toxic concentration that kills 50% of cells; read-out: Anti-HSV-1 Activity TC50.
Another data set deals with HSV-1. Kind of data set: In vitro anti-viral activity for HSV-1. To be noted: Human alphaherpesvirus 1. Format: cell-based.
Data set [2] can be described thus: In vitro anti-viral activity for HSV-2. It is filed as cell-based. To be noted: HSV-2 assay; toxic concentration that kills 50% of cells; read-out: Anti-HSV-2 Activity TC50.
The subject of the next data set is HSV-2. Kind of data set: In vitro anti-viral activity for HSV-2. To be noted: Human alphaherpesvirus 2. It is filed as cell-based.
Data set [3] is described as follows: In vitro anti-viral activity for HIV-1. It is filed as cell-based. To be noted: HIV-1 assay; toxic concentration that kills 50% of cells; read-out: Anti-HIV-1 Activity TC50.
In a further data set the test system is HIV-1. As to the kind of experiment: In vitro anti-viral activity for HIV-1. It is filed as cell-based. To be noted: Human immunodeficiency virus 1.
Data set [4] can be described thus: In vitro anti-viral activity for HIV-2. It is filed as cell-based. To be noted: HIV-2 assay; toxic concentration that kills 50% of cells; read-out: Anti-HIV-2 Activity TC50.
The next data set has as its system HIV-2. As to the kind of experiment: In vitro anti-viral activity for HIV-2. It is filed as cell-based. To be noted: Human immunodeficiency virus 2.
A short description of data set [5]: HepG2 2.15 anti-viral evaluation assay (in vitro anti-HBV activity). To be noted: human, HepG2 2.2.15 cells (produce HBV aywl strain); HepG2 2.2.15 cells; positive control; read-out: Anti-HBV TC50. Format: cell-based, HBV aywl strain. As for the experimental part:
(§1) HepG2 2.2.15 cells, which produce HBV aywl strain, were plated in 96-well collagen coated microtiter plates at a density of 2.5×10^4/well with DMEM medium supplemented with 2% fetal bovine serum. One day following plating of cells, the wells were washed and the medium was replaced with complete medium containing the test compound diluted in the medium in a half-log series.
(§2) The medium was replaced once with the fresh medium containing the freshly diluted compound three days post the initial addition of the lamivudine, a positive control compound. Cell viability was determined using CellTiter 96® Reagent (Promega, Madison, Wis.) according to the manufacturer's protocol, using a Vmax plate reader (Molecular Devices, Sunnyvale, Calif.). The mixture is metabolized by the mitochondrial enzymes of metabolically active cells to a soluble formazan product, allowing the rapid quantitative analysis of cell numbers. The media was removed and replaced with 100 μL of fresh media and 10 μL of Cell Titer 96. […] Percent cell viability of compound treated wells compared to no compound controls was calculated using an in-house computer program which graphs the percent reduction in viral cytopathic effects and the cell numbers at each drug concentration relative to control values.

The subject of another data set is HBV. The data set is described as above. Format: cell-based, HBV aywl strain. How it is done:
as §1, §2

For the compound `Nc1nc2c(ncn2COCCO)c(=O)[nH]1` [Acyclovir, reference compound], the CC50 in [1] and in data set [2] was > 100 µM in each case. The IC50 (in general, the concentration that inhibits the measured activity by half) in the data set on HSV-1 was determined as 18 µM; in the data set with HSV-2, 7.61 µM.

Regarding `Fc1ccc(B(Oc2cccc3cccnc23)c2ccc(Cl)cc2)cc1` [Compound 15, (4-Fluorophenyl)(4-chlorophenyl)borinic acid quinolin-8-yl ester], the CC50 in data set [3] was 2.5 µM; in data set [4], 0.53 µM; in data set [1] it was > 32 µM; in data set [2] it was 32.9 µM. The half-maximal inhibitory concentration (IC50) in the data set on HIV-1 is 0.17 µM; in the data set with HIV-2 it was 0.04 µM; in the data set with HSV-1 it was 9.68 µM; with HSV-2 it was > 50 µM.

As for `Nc1ccn([C@@H]2CS[C@H](CO)O2)c(=O)n1` [Lamivudine], in data set [5], the CC50 was > 1 µM. The “Anti-viral Selectivity Index” value in the data set with HBV (HBV, TC50/IC50) was >1075. Further, half-maximal inhibition in the data set on HBV (Hepatitis B virus, HepG2 2.2.15 cells, positive control) (IC50) required 0.0093 µM.
